These results are taken from PMC4136845, “Evaluation of Antimalarial Activity and Toxicity of a New Primaquine Prodrug” (PLoS ONE, 2014).

The term log P denotes a log measure of how a compound divides between an organic and an aqueous phase. A low value points to lower lipophilicity.

For series [1], the system named is G6PD-deficient human red blood cells. Description: In vitro hemolysis assay.
Method: The hemolytic rate was calculated using 0.05% saponin as the positive control for hemolysis of human RBC, which was considered 100% [24], [25]. The diagnosis of G6PD deficiency was performed using a technique based on the principle that hemoglobin oxidized to methemoglobin, by the action of sodium nitrite, is catalyzed by an enzyme, in the presence of methylene blue [26]. […] All participants signed a written informed consent before blood collection. The consent was approved by the Ethics Committee of CEPEM.
Series [2] is described as follows: Partition coefficient (log P) by HPLC method, OECD guideline. Particulars: HPLC method. Here is the method: A Waters Alliance HPLC system equipped with a UV-Vis 2487 detector was employed. The chromatographic analysis was performed on a Symmetry C18 HPLC column (4.6 mm×250 mm, 5 µm particle size) and the mobile phase was methanol:water (70∶30), with detection at 256 nm. A flow rate of 1.0 mL/min was used and 50-µL samples were injected into the chromatographic system. The run time was approximately 15 min. The analytical curve was constructed on the basis of the retention time of the standards (purchased from Sigma Aldrich, NJ, USA) butanone, acetanilide, phenol, phenacetin, benzene, toluene, chlorobenzene and thymol, dissolved in mobile phase at a concentration of 50 µg/mL. The substances were analyzed in triplicate and the average retention time for each standard was used. The capacity factor (k) was obtained by the equation [20]: k = (tR - t0) /t0, where tR is the retention time of the test substance and t0 the dead-time. The log k values were correlated with the partition coefficients of the standards for construction of the analytical curve. […] The coefficient of determination (r^2) was also calculated to evaluate the linearity of the analytical curve.

The subject of series [3] is human hepatoma cell line (HepG2). Description: In vitro cytotoxicity, MTT assay, HepG2 cells. As to the method: The HepG2 (ATCC HB-8065) was originally received from the New University of Lisbon, Portugal, and BGM received as a gift from the Federal University of Minas Gerais and originally purchased from Rio de Janeiro Cell Bank (BCRJ 0049). When confluent, the cells were washed with RPMI culture medium, then trypsinized, distributed in a flat-bottom 96-well plate (5×10^3 cells/well), and incubated for 18 h at 37°C for cell adherence as described elsewhere. The compound (20 µL) was added to each well at various concentrations (1-1000 µg/mL) and the plate incubated for 24 h in a 5% CO2 atmosphere at 37°C. MTT [3-(4,5-dimethylthiazol-2-yl)-2,5-diphenyltetrazolium bromide] (5 mg/mL; 20 µL/well) was added to evaluate mitochondrial viability, and the plates were incubated again for 3 h, under the same culture conditions. The supernatant was carefully removed, and 100 µL of DMSO were added with mixing to dissolve the formazan crystals formed. The optical density was determined at 570 and 630 nm (background) (SpectraMax 340PC 384, Molecular Devices). Cell viability was expressed as the percentage of the control absorbance of the untreated cells after subtracting the appropriate background. The minimum lethal dose for 50% of the cells (MLD50) was determined as previously described.
A general note: Tetrazolium assays rely on reduction of a dye to a coloured formazan, in cell work by metabolically active cells.

A further series has as its system male Wistar rats. Description: Histopathological evaluation of rat liver and kidney. The following applies: multiple doses. Here is the method:
The biochemical, hematological and histopathological analyses were carried out in male Wistar rats (weighing 200–250 g). They were housed in wire cages, five animals per cage, with free access to food and water. The study protocol was approved by The Research Ethics Committee of the School of Pharmaceutical Sciences, UNESP, Araraquara (process 06/2009). […] After treatment with the drugs, the animals were decapitated for collection of blood and samples of liver and kidneys (preserved in 10% formaldehyde).
The liver and kidney were removed from each rat to perform the histopathological evaluation. Tissue pieces were fixed in 10% formaldehyde and embedded in paraffin. Each organ was then cut into 4-µm thick sections and subjected to standard hematoxylin/eosin staining. Hepatic glycogen staining in sections was carried out using the standard periodic acid-Schiff (PAS) reaction, followed by hematoxylin counterstaining, and the periportal and centrilobular regions of the liver were analyzed according to Thoolen et al.. Five periportal regions and five centrilobular regions were photographed in each animal, for a total of 300 photographs, and these images were adjusted using Pixelmator software (2.2.1). Nuclear hepatocyte glycogen levels were classified as: A- PAS<50% of cells, B- PAS≥50% of cells and C- PAS-negative. Additionally, liver sections were examined for the occurrence of microvesicular fatty changes, as well as the kidney sections for inflammatory infiltration, reduction of Bowman's spaces and changes in renal tubules. Statistical analysis was performed in Graphpad Prism 5.0b. Data for each organ analysis were expressed qualitatively and quantitatively, and normal distribution was verified (D'Agostin and Person). t-tests and chi-square tests were performed, and non-parametric data were evaluated using the Mann-Whitney or Kruskal-Wallis test for pair wise comparisons of groups. The significance level was set at 5%.

A further series has as its system P. gallinaceum. Description: Inhibition of P. gallinaceum sporogony in Aedes fluviatilis mosquitoes fed on infected, treated chickens. It is filed as in vivo. The following applies: for Mean oocyts ±SD/ in times 4 h: chicken, mosquitoes fed 4 h after treatment; for Reduction in oocyst number, % / Sporogony inhibition, %: 4 h vs 0 h. As to the method: One-week-old chicks (Gallus gallus domesticus) previously inoculated with 10^6 RBC infected with P. gallinaceum, had their parasitemia monitoried daily, by examining Giemsa-stained thin blood smears; they were used to feed the mosquitoes when reaching 2.8 – 3.8%. The A. fluviatilis mosquitoes were kept for 24 h without sugar in their diet, to improve their ability to take the blood meal from chickens. For each compound the same infected chicken was offered twice to feed clean mosquitoes (30 female mosquitoes per group), before treatment, (group 0 h). Drug treatment was immediately performed by gavage and the treated chicken was offered again to blood-feed another group of mosquitoes (test group) 4 h after treatment of the chicken with the drug. […] In each experiment, another non-treated P. gallinaceum-infected chick was used twice (time 0 h and 4 h later) to feed clean mosquitoes, serving as an internal control.
Seven days after the blood meal, the mosquitoes were dissected and their midgut was removed under a stereomicroscope (100x), stained with 0.5% mercurochrome, and examined under a light microscope (40x) for the oocyst count. […] Two criteria were used to evaluate drug activity: the total number of infected mosquitoes and the mean number of oocysts, based on the examination of 20 mosquitoes in each group.

The conditions of series [4]: previous study; cited from earlier work.
Setting [5] is: single oral dose 1.0 mg/kg (Phe-Ala-PQ: 0.19 mg/kg PQ).
Where [6] appears, read: single oral dose 5.0 mg/kg (0.94 mg/kg PQ).
The mark [7] stands for this setting: single oral dose 10 mg/kg (1.9 mg/kg PQ).

Where “and” joins values, the source holds several entries; their conditions need not be identical. Equal entries are not always repeated. Entries after “also recorded” stand apart in the source; their conditions may differ.

For `COc1cc(NC(C)CCCNC(=O)[C@H](C)NC(=O)[C@@H](N)Cc2ccccc2)c2ncccc2c1` (stereo partly drawn) [Phe-Ala-PQ, phenylalanine-alanine-primaquine], the Hemolysis % was found to be 0% in series [1] (125 µg/mL (Phe-Ala-PQ: 23.7 µg/mL PQ equivalents)) and 51% in series [1] (500 µg/mL (Phe-Ala-PQ: 95 µg/mL PQ equivalents)). The Hemolysis result in series [1] (concentrations equal to or less than 250 µg/mL (47.5 µg/mL PQ equivalents)) is “did not cause hemolysis”. Moreover, the “log P” value in series [2] was 0.94. Besides, the “MDL50 HepG2, PQ equivalents” value in series [3] (MTT, 24 h, expressed as PQ equivalents) turned out to be 175 µg/mL. In addition, the “MDL50 (Mean±SD) HepG2” value in series [3] (MTT, 24 h incubation) is 920 µg/mL and 920 ± 1 µg/mL. In addition, the “Toxicity to HepG2 cells compared to PQ” value in series [3] (ratio of MDL50 values) was “five times less toxic”. In addition, the “Liver glycogen: positive cells (<50%), periportal region” value in the series on male Wistar rats is on record as “increase”. The “Liver glycogen: PAS-positive cells (>50%), overall analysis of the liver” value in the series with male Wistar rats (compared to control group) is “more PAS-positive cells (>50%)”. Moreover, the “Liver cells with fatty microvesicular changes” value with male Wistar rats (compared to the PQ group, listed as prodrug) is reported as “fewer cells with fatty microvesicular changes; also recorded: lower percentage of cells with fatty microvesicular changes”. Besides, the “Liver glycogen: PAS-positive cells (total), periportal region” value with male Wistar rats (compared to the control group) is recorded as “more PAS-positive cells (total) compared to the control group”. In addition, the “Histopathological analysis of the kidney” value with male Wistar rats (hematoxylin/eosin) is “normal structures, with no alteration in the glomeruli and renal tubules”. The figures for the “Mean oocyts ±SD/ in times 4 h” value in the series with P. gallinaceum (setting [5]), in the series with P. gallinaceum (setting [6]) and in the series with P. gallinaceum (setting [7]) were 26±36, 6±6 and 0±0, respectively. Also, the figures for the “Reduction in oocyst number, %” value in the series with P. gallinaceum (setting [5]), in the series on P. gallinaceum (setting [6]) and in the series with P. gallinaceum (setting [7]) were 0%, 70% and 100%, respectively. The “Sporogony inhibition, %” value in the series on P. gallinaceum (setting [5]) is reported as 0%; in the series on P. gallinaceum (setting [7]) it was 100%. Further, the oral bioavailability entry in series [4] is on record as “approximately 50%”.
